The values below come from patent US20210290732A1, “GLP-1R and GCGR Agonists, Formulations, and Methods of Use” (Spitfire Pharma LLC, priority 2020, published 2021).

“And” between values parts separate entries of the source, which are not always exact repeats. Identical values can stand only once. Like-named read-outs stand apart in the source and are kept apart here.

The target of one data set is T1, human GLP-1R (Homo sapiens, UniProt P43220).
T1 construct: host or cells: CHO-K1
Nature of the data set: cAMP receptor activation assay, human GLP-1R cloned into CHO cells (DiscoverX LeadHunter / cAMP Hunter). The format is cell-based.

The next data set has as its target GCGR (Homo sapiens, UniProt P47871). Nature of the data set: cAMP receptor activation assay, human GCGR cloned into CHO cells (DiscoverX LeadHunter / cAMP Hunter). The format is cell-based. More on the design: host or cells: CHO-K1. The note with it: for EC50: cAMP, CHO cells, 0.1% OVA containing buffers, read-out: EC50 hGCGR.
In a further data set the test system is DIO-NASH mice. Nature of the data set: DIO-NASH mouse study, 12 weeks of QD dosing. The format is in vivo. The method, then: All mice entering the experiment have been pre-biopsied, stratified based on liver biopsy (only animals with fibrosis 1 or above and steatosis 2 or above are included) animals stratified into groups based on Col1a1 immunostaining. […] Body weight (BW) was measured daily for the entire study period, food intake daily for the first 14 days then weekly until study end. Terminal plasma was measured for ALT/AST/TG/TC levels. Terminal liver removal and sampling was carried out for pre to post NAFLD Activity Score (NAS; HE staining) including Fibrosis Stage (Picrosirius red, PSR). Terminal histology was carried out for steatosis, Col1a1 and galectin-3 quantitation. Terminal liver workup included TG+TC (extraction and measurement). Terminal liver biopsies were set up in: 1) 4% PFA for histology, 2) fresh frozen liver for biochemistry, 3) fresh frozen liver for RNA extraction and RNAseq.

Data set [1] can be described thus: CMC of Polysorbate 80 in F58 buffer pH 7.7 with added ALT-801 by surface tensiometry. It is filed as physicochemical. From the text: CMC shifts are simply calculated as CMC in the presence of the ALT-801 less the CMC for the surfactant alone in solution.

GCGR, sequence (P47871 26-477): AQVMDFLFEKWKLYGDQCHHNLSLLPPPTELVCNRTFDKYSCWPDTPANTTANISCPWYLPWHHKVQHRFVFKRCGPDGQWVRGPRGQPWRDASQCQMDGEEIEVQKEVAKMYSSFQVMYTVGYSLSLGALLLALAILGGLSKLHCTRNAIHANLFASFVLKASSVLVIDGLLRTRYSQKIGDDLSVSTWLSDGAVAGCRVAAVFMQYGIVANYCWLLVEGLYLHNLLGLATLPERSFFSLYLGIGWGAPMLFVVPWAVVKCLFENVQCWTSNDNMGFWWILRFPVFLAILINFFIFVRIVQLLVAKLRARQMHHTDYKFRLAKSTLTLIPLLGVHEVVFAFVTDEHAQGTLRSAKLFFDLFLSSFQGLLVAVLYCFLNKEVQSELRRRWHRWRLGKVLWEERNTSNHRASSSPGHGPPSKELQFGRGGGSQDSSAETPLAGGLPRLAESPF
T1 sequence (P43220 24-463): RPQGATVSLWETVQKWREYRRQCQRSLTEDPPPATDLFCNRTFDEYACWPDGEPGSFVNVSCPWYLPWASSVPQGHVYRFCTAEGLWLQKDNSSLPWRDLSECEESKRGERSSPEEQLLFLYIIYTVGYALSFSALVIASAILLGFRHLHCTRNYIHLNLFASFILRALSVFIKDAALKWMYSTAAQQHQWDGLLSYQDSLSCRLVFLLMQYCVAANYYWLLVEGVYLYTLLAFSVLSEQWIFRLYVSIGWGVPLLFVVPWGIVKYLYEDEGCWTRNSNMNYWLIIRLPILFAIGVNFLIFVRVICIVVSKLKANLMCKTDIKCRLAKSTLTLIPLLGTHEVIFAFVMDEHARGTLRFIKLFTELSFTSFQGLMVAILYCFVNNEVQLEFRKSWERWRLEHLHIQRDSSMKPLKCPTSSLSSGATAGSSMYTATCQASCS
Procedure for GCGR: (§1) Cellular assays were carried out using standard cellular assays (DiscoveRx, LeadHunter assays) using readout of cAMP stimulation or arrestin activation. Compounds were weighed precisely in an amount of approximately 1 mg and shipped to DiscoverX (Fremont, Calif.) for dilution and assay. […] Assays were carried out in the presence of 0.1% ovalbumin. […] Use of 0.1% ovalbumin can avoid this problem.
(§2) Assays were carried out in the presence of 0.1% ovalbumin. […] Use of 0.1% ovalbumin can avoid this problem.
(§3) Receptor activation assays were performed at DiscoverX laboratories (Fremont, Calif.) using human GLP-1R and GCGR cloned into Chinese Hamster Ovary (CHO) cells (LeadHunter Discovery Services; assay product 86-0007D cAMP Hunter™ using huGLP1R and huGCGR; whole cell cAMP accumulation assays; cell lines used were cAMP Hunter™ CHO-K1 GCGR Gs Cell Line, catalog 95-0042C2 and cAMP Hunter™ CHO-K1 GLP1 Gs Cell Line, catalog 95-0062C2; readout of accumulated cAMP was made using readout HitHunter cAMP XS+ assay). Cell lines are maintained at DiscoverX and were incubated with test agents for 30 m at 37° C. for accumulation of cAMP. […] Results described herein are from single assays performed on cells in duplicate and data were replotted in Prism 5 to provide pEC50 (SE) data.
(§4) In vitro data are presented as pEC50 (SE) determined in Prism 5 by nonlinear regression analysis of the raw fluorescence data normalized by corresponding response to internal standards (see Supporting Information for data plots).
Procedure for human GLP-1R: as §1, §2, §3, §4

On to `CCCCCCCCCCCCCCO[C@@H]1O[C@H](C(=O)N[C@@H](CCC(=O)NCCCC[C@H](NC(=O)[C@@H](NC(=O)[C@H](Cc2ccccc2)NC(=O)[C@H](CCC(=O)O)NC(=O)[C@@H]2CCCCNC(=O)CC[C@H](NC(=O)[C@H](CC(=O)O)NC(=O)[C@H](CC(C)C)NC(=O)[C@H](Cc3ccc(O)cc3)NC(=O)[C@H](CCCCN)NC(=O)[C@H](CO)NC(=O)[C@H](Cc3ccc(O)cc3)NC(=O)[C@H](CC(=O)O)NC(=O)[C@H](CO)NC(=O)[C@@H](NC(=O)[C@H](Cc3ccccc3)NC(=O)[C@@H](NC(=O)CNC(=O)[C@H](CCC(N)=O)NC(=O)C(C)(C)NC(=O)[C@@H](N)Cc3c[nH]cn3)[C@@H](C)O)[C@@H](C)O)C(=O)N[C@@H](CCC(N)=O)C(=O)N[C@@H](C)C(=O)N[C@@H](C)C(=O)N2)[C@@H](C)CC)C(=O)N[C@@H](Cc2c[nH]c3ccccc23)C(=O)N[C@@H](CC(C)C)C(=O)N[C@@H](CC(C)C)C(=O)N[C@@H](CCC(N)=O)C(=O)N[C@H](C(N)=O)[C@@H](C)O)C(=O)O)[C@@H](O)[C@H](O)[C@H]1O` [analogue 14], for which, on human GLP-1R (SR = GCGR EC50/GLP-1 EC50, 0.1% BSA), the “Selectivity Ratio GLP-1R vs GCGR” value was 2. For the same compound, the EC50 on human GLP-1R (cAMP, CHO cells, 0.1% BSA containing buffers, read-out: pEC50 (SE) hu GLP-1 (converted)) is 0.0427 nM. Further, the “GCGR activation potency (vs 4)” value on GCGR was “significantly weakened GCGR activation potency”.
On to `CC[C@H](C)[C@H](NC(=O)[C@H](Cc1ccccc1)NC(=O)[C@H](CCC(=O)O)NC(=O)[C@@H]1CCCCNC(=O)CC[C@H](NC(=O)[C@H](CC(=O)O)NC(=O)[C@H](CC(C)C)NC(=O)[C@H](Cc2ccc(O)cc2)NC(=O)[C@H](CCCCN)NC(=O)[C@H](CO)NC(=O)[C@H](Cc2ccc(O)cc2)NC(=O)[C@H](CC(=O)O)NC(=O)[C@H](CO)NC(=O)[C@@H](NC(=O)[C@H](Cc2ccccc2)NC(=O)[C@@H](NC(=O)CNC(=O)[C@H](CCC(N)=O)NC(=O)C(C)(C)NC(=O)[C@@H](N)Cc2c[nH]cn2)[C@@H](C)O)[C@@H](C)O)C(=O)N[C@@H](CCC(N)=O)C(=O)N[C@@H](C)C(=O)N[C@@H](C)C(=O)N1)C(=O)N[C@@H](CCCCNC(=O)[C@H]1O[C@@H](OCCCCCCCCCCCCCCCC(=O)O)[C@H](O)[C@@H](O)[C@@H]1O)C(=O)N[C@@H](Cc1c[nH]c2ccccc12)C(=O)N[C@@H](CC(C)C)C(=O)N[C@@H](CC(C)C)C(=O)N[C@@H](CCC(N)=O)C(=O)N[C@H](C(N)=O)[C@@H](C)O` [analogue 15], for which the EC50 at human GLP-1R (cAMP, CHO cells, 0.1% OVA containing buffers, read-out: pEC50 (SE) hu GLP-1 (converted)) was 0.038 nM; at GCGR, 0.065 nM.
With `CC[C@H](C)[C@H](NC(=O)[C@H](Cc1ccccc1)NC(=O)[C@H](CCC(=O)O)NC(=O)[C@@H]1CCCCNC(=O)CC[C@H](NC(=O)[C@H](CC(=O)O)NC(=O)[C@H](CC(C)C)NC(=O)[C@H](Cc2ccc(O)cc2)NC(=O)[C@H](CCCCN)NC(=O)[C@H](CO)NC(=O)[C@H](Cc2ccc(O)cc2)NC(=O)[C@H](CC(=O)O)NC(=O)[C@H](CO)NC(=O)[C@@H](NC(=O)[C@H](Cc2ccccc2)NC(=O)[C@@H](NC(=O)CNC(=O)[C@H](CCC(N)=O)NC(=O)C(C)(C)NC(=O)[C@@H](N)Cc2c[nH]cn2)[C@@H](C)O)[C@@H](C)O)C(=O)N[C@@H](CCC(N)=O)C(=O)N[C@@H](C)C(=O)N[C@@H](C)C(=O)N1)C(=O)N[C@@H](CCCCNC(=O)[C@H]1O[C@@H](OCCCCCCCCCCCCCCCCCC(=O)O)[C@H](O)[C@@H](O)[C@@H]1O)C(=O)N[C@@H](Cc1c[nH]c2ccccc12)C(=O)N[C@@H](CC(C)C)C(=O)N[C@@H](CC(C)C)C(=O)N[C@@H](CCC(N)=O)C(=O)N[C@H](C(N)=O)[C@@H](C)O` [analogue 16], the EC50 at human GLP-1R (0.1% BSA in assay buffer, read-out: EC50 GLP-1R) worked out at 1.27 nM; at GCGR, 0.086 nM.
As for `CSc1ccc(C(=O)/C=C/c2cc(C)c(OC(C)(C)C(=O)O)c(C)c2)cc1` [elafibranor], in the data set on DIO-NASH mice (ALT-801 5 and 10 nmol/kg, elafibranor 78 μmol/kg, semaglutide 10 nmol/kg), the “body weight compared to NASH control (p≤0.001)” value is “statistically significantly decreased body weight”. In the data set with DIO-NASH mice (NASH mice, 78 μmol/kg PO QD, 12 weeks), the “NAFLD activity score (NAS) reduction compared to the start of treatment” value came out at 42%. In addition, in the data set on DIO-NASH mice (NASH mice, liver RNAseq), the “expression of cell death genes vs NASH vehicle control” value is listed as “No statistical differences”; the “expression of genes affecting fat usage and transport vs NASH vehicle control” value was “significantly lower GPAT2 (p<0.001) and GPAT4 (p<0.001)”; the “expression of liver inflammation genes (FOSB, JUN, TLR4) vs NASH vehicle control” value is listed as “No statistically significant changes”. For the same compound, the “number of differentially expressed genes (liver RNA sequencing)” value in the data set on DIO-NASH mice (NASH mice, high dose ALT-801, elafibranor, semaglutide) is given as ~5800.
Polysorbate 80: in data set [1] (5.0 mg/ml ALT-801), the “CMC Shift Due to ALT-801” value is 5.16 mg/mL, the “Extent of Interaction mg PS80/mg ALT-801” value was found to be 1.03 mg/mg and the “Extent of Interaction moles PS80/molesALT-801” value came to 3.05 mole/mole. Moreover, in data set [1] (10.0 mg/ml ALT-801), the “CMC Shift Due to ALT-801” value was 10.32 mg/mL, the “Extent of Interaction mg PS80/mg ALT-801” value is 1.03 mg/mg and the “Extent of Interaction moles PS80/molesALT-801” value is 3.05 mole/mole. Further, in data set [1] (F58 buffer pH 7.7, 5.0 mg/ml ALT-801), the “Polysorbate 80 CMC Value 5.0 mg/ml ALT-801, Average” value came to 5.34 mg/mL. The “Polysorbate 80 CMC Value 5.0 mg/ml ALT-801” value in data set [1] (F58 buffer pH 7.7, 5.0 mg/ml ALT-801, single test) was 5.35 mg/mL and 5.33 mg/mL. The “Polysorbate 80 CMC Value 10.0 mg/ml ALT-801, Average” value in data set [1] (F58 buffer pH 7.7, 10.0 mg/ml ALT-801) is 10.50 mg/mL. Besides, in data set [1] (F58 buffer pH 7.7, 10.0 mg/ml ALT-801, single test), the “Polysorbate 80 CMC Value 10.0 mg/ml ALT-801” value was 10.49 mg/mL and 10.50 mg/mL. Further, in data set [1] (F58 buffer pH 7.7, no ALT-801), the “Polysorbate 80 CMC Valve No ALT-801, Average” value amounted to 0.183 mg/mL. For the same compound, in data set [1] (F58 buffer pH 7.7, no ALT-801, single test), the “Polysorbate 80 CMC Valve No ALT-801” value is 0.182 mg/mL and 0.183 mg/mL. For the same compound, in data set [1] ([…] ALT-801), the “Extent of Interaction mg PS80/mg ALT-801” value is 1.03 mg/mg and the “Extent of Interaction moles PS80/molesALT-801” value was 3.05 mole/mole.
